Results on 3 compounds are retold here after paper PMC11492869, “Dimerization and lysine substitution of melittin have differing effects on bacteria” (Frontiers in Pharmacology, 2024).

Converted amounts (≈) assume the structure as drawn. Read-outs that look alike come from different tables or passages of the source.

Holding throughout (assay type): cell-based
Data set [1] relates to Chicken red blood cells (RBCs). Put plainly: Hemolysis assay. On the procedure: Chicken red blood cells (RBCs) in Alsever’s solution (RBCs, Equicell, Victoria, Australia) were diluted 1 in 20 in PBS (pH 7.4), pelleted by centrifugation, and washed three times in PBS (1,000 g, 10 min). The RBCs were counted using a cell counter (Coulter Particle Counter Z series, Beckman Coulter) and diluted to a final concentration of 2 × 10^7 cells/mL. Aliquots (100 μL) of the RBC solution were seeded into a V-bottomed 96-well plate containing 100 μL of serial dilutions (10–0.08 μM) of the AMP in PBS and incubated in a humidified atmosphere containing 5% CO2 at 37°C for 2 h. Following incubation, the RBCs were pelleted in a centrifuge (1,000 g, 10 min), and the amount of hemoglobin released in 100 μL aliquots of the supernatant was determined by measuring the absorbance at 405 nm using a microplate reader (PerkinElmer 1,420 Multilabel Counter VICTOR3). Positive and negative controls for hemolysis were taken as RBC lysed with 1% v/v Triton X-100 and RBC suspension in PBS, respectively. The percentage of hemolysis was calculated using the following formula: % Hemolysis A405 test sample−A405 negative control / A405 positive control−A405 negative controlx 100.
The percentage hemolysis was plotted against peptide concentration, and linear regression analysis was used to determine the hemolytic concentration needed to lyse 50% (HC50) of RBCs.

In data set [2] the test system is H4IIE cells. Nature of the data set: Cytotoxicity (cell lysis), LDH release assay. Particulars: for TI (cell lysis): H4IIE, LD50/MBC50. The method, then:
(§1) To determine toxicity toward mammalian cells, 1 × 10^4 cells/well of HEK-293 (ATCC CRL-1573TM) or H4IIE in a total volume of […] in media (Eagle’s Minimum Essential Medium (EMEM) supplemented with 10% v/v fetal bovine serum, 5% v/v L-glutamine and 5% v/v penicillin/streptomycin) were seeded into 96-well plates and cultured at 37°C in a 5% CO2 incubator for 16–20 h. When cells were ≥90% confluent, the 100 µL media was removed and replaced with 50 μL serial dilutions of the AMP in media (final concentration 20–0.5 μM) and cultured at 37°C in a 5% CO2 incubator for 90 min. From each well, 50 µL was transferred to a new plate. To the 50 μL, 50 µL of lactate dehydrogenase (LDH) solution (CytoTox 96® Non-Radioactive Cytotoxicity Assay kit, Promega) was added to each well and incubated for a further 30 min at room temperature and protected from light. Cell death was determined by measuring absorbance at 490 nm using a microplate reader (PerkinElmer 1,420 Multilabel Counter VICTOR3). Positive and negative controls for inhibition were taken as cells incubated with lysis solution (CytoTox 96® Non-Radioactive Cytotoxicity Assay kit, Promega) and cells incubated in media alone, respectively. The background absorbance of media alone was subtracted from the sample absorbance, and the percentage of inhibition was calculated using the following formula: % Cytotoxicity=A490 test sample−A490 negative control/A490 positive control−A490 negative control×100.
(§2) The percentage of lysis was plotted against peptide concentration, and linear regression analysis was used to determine the AMP concentration needed to lyse 50% (LD50) of the cells.

Data set [3] deals with HEK-293 (ATCC CRL-1573) cells. Put plainly: Cytotoxicity (cell lysis), LDH release assay. Particulars: for TI (cell lysis): HEK293, LD50/MBC50. The method, then:
as §1, §2
In general terms: Release of lactate dehydrogenase indicates damage to the cell membrane.

The test system of data set [4] is H4IIE cells. Nature of the data set: Inhibition of cell proliferation, MTS assay. Particulars: for TI (cell proliferation): H4IIE, IC50/MIC50. The method, then:
(§3) To determine the inhibition of cell proliferation, 20 μL of 3-(4,5-dimethylthiazol-2-yl)-5-(3-carboxymethoxyphenyl)-2-(4-sulfophenyl)-2H-tetrazolium (MTS) solution (CellTiter 96 AQueous Non-Radioactive Cell Proliferation Assay kit, Promega) was added to the remaining 100 µL from the toxicity assay, and the plates were incubated for a further 1 h at 37°C in a 5% CO2 incubator protected from light. Cell proliferation was determined by measuring absorbance at 490 nm using a microplate reader (PerkinElmer 1,420 Multilabel Counter VICTOR3). Positive and negative controls for inhibition were taken as cells incubated with lysis solution (CytoTox 96® Non-Radioactive Cytotoxicity Assay kit, Promega) and cells incubated in media alone, respectively. The background absorbance of media alone was subtracted from the samples, and the percentage of inhibition was calculated using the following formula: % Inhibition=A490 test sample−A490 negative control/A490 positive control−A490 negative control×100.
(§4) The percentage of inhibition was plotted against peptide concentration, and linear regression analysis was used to determine the AMP concentration needed to inhibit 50% (IC50) of cell growth.
A general note: Tetrazolium dyes change colour on reduction, which living cells bring about.

For data set [5], the system named is HEK-293 (ATCC CRL-1573) cells. Nature of the data set: Inhibition of cell proliferation, MTS assay. Particulars: for TI (cell proliferation): HEK293, IC50/MIC50. The method, then:
as §3, §4

Data set [6] relates to E. coli ATCC 8739. To be noted: cation-adjusted MHB, 1 × 10^5 cells/well, 90 min incubation with peptide at 37°C, then growth monitored 20 h at OD630, Lambert and Pearson analysis, mean ± SD, at least three biological repeats. On the procedure:
(§5) For the antimicrobial peptide assays, a 10 mL starter culture was produced by taking single colonies from LB agar plates to inoculate in Lysogeny/Luria Broth (1% w/v Oxoid Tryptone, 0.5% w/v NaCl, 0.5% w/v Oxoid Yeast Extract, pH 7.0, Thermo Scientific Pty, Ltd., Sydney, Australia) for bacteria; S. aureus ATCC 29213 and E. coli ATCC 8739 were grown aerobically at 37°C in an orbital shaker (Minitron, Infors HT) at 200 rpm. After overnight incubation, 0.5–1.0 mL of the starter culture was used to inoculate fresh LB broth (20 mL), and its growth was monitored at 600 nm using a spectrophotometer (model Varian Cary 50 Bio UV-Vis). Bacteria were harvested during the late exponential growth phase, and CFUs/mL were determined using the growth curve data set that correlated OD600 to CFUs/mL.
Antibacterial assays were undertaken to determine the minimum inhibitory concentration (MIC), the minimum bactericidal concentration (MBC), and the level of membrane disruption of each of the antimicrobial peptides (AMPs) and multimerized AMPs. For each bacterium, a stock solution (2 × 10^6 cells/mL) in cation-adjusted Mueller Hinton Broth (MHB) was made, and an aliquot was incubated with AMPs within 15 min from viable cell count and stock preparation. […] After the 90-min incubation period, the antimicrobial activity (MIC and MBC) was determined as follows: […]

Data set [7] has as its system E. coli ATCC 8739. Particulars: cation-adjusted MHB, 90 min incubation at 37°C, plated on LB agar 12–24 h, lowest concentration giving less than one CFU (≥99.9% reduction), mean ± SD, at least three biological repeats. The method, then: as §5
(§6) Antibacterial assays were undertaken to determine the minimum inhibitory concentration (MIC), the minimum bactericidal concentration (MBC), and the level of membrane disruption of each of the antimicrobial peptides (AMPs) and multimerized AMPs. […] After the 90-min incubation period, the antimicrobial activity (MIC and MBC) was determined as follows:
(§7) The CLSI protocol was followed to determine MBC. After incubation, bacteria were serially diluted (1:10) in PBS, plated on LB agar, and incubated for 12–24 h at 37°C; then, the CFUs were quantified. […]

In data set [8] the test system is S. aureus ATCC 29213. Nature of the data set: microbe, parasite or virus in culture. To be noted: 90 min incubation at 37°C, plated on LB agar 12–24 h, lowest concentration giving less than one CFU (≥99.9% reduction), mean ± SD, at least three biological repeats. The method, then: as §5, §6, §7

As a reminder, the HC50 is the concentration that lyses half of the red blood cells. The low end stands for stronger haemolysis, the high end for weaker haemolysis. A word on the IC50: it is the concentration at which inhibition is half-maximal. Higher therefore signals weaker potency in that assay. What is called MIC is the least concentration at which growth counts as inhibited. Read a high MIC as a less susceptible organism. In data set [1] (chicken RBCs in PBS pH 7.4, 2 × 10^7 cells/mL stock, 10–0.08 μM, 2 h at 37°C, absorbance 405 nm, 1% Triton X-100 positive control, mean ± SD, at least three biological repeats), `CC[C@H](C)[C@H](NC(=O)CN)C(=O)NCC(=O)N[C@@H](C)C(=O)N[C@H](C(=O)N[C@@H](CC(C)C)C(=O)N[C@@H](CCCCN)C(=O)N[C@H](C(=O)N[C@@H](CC(C)C)C(=O)N[C@H](C(=O)N[C@H](C(=O)NCC(=O)N[C@@H](CC(C)C)C(=O)N1CCC[C@H]1C(=O)N[C@@H](C)C(=O)N[C@@H](CC(C)C)C(=O)N[C@H](C(=O)N[C@@H](CO)C(=O)N[C@@H](Cc1c[nH]c2ccccc12)C(=O)N[C@H](C(=O)N[C@@H](CCCCN)C(=O)N[C@@H](CCCNC(=N)N)C(=O)N[C@@H](CCCCN)C(=O)N[C@@H](CCCNC(=N)N)C(=O)N[C@@H](CCC(N)=O)C(=O)N[C@@H](CCC(N)=O)C(N)=O)[C@@H](C)CC)[C@@H](C)CC)[C@@H](C)O)[C@@H](C)O)C(C)C)C(C)C` [1. Melittin, Melittin] registered an HC50 of 0.59 ± 0.04 µM. For the same compound, in data set [1] (chicken RBCs, HC50/MBC50, MBC50 toward S. aureus 29213), the “TI (hemolysis)” value worked out at 0.67. In data set [1] (chicken RBCs, HC50/MBC50, MBC50 towards E. coli 8729), the “TI (haemolysis)” value is 0.14. Besides, the LD50 in data set [2] (H4IIE cells, LDH release, 90 min exposure at 37°C, 20–0.5 μM, concentration lysing 50% of cells by linear regression, mean ± SD, at least three biological repeats) is 1.79 ± 0.95 µM; in data set [3] (HEK293 cells, LDH release, 90 min exposure at 37°C, 20–0.5 μM, concentration lysing 50% of cells by linear regression, mean ± SD, at least three biological repeats), 0.75 ± 0.21 µM. Moreover, the “TI (cell lysis)” value in data set [2] (MBC50 toward S. aureus 29213) is on record as 2.05; in data set [2] (MBC50 towards E. coli 8729), 0.41; in data set [3] (MBC50 toward S. aureus 29213) it was 0.85; in data set [3] (MBC50 towards E. coli 8729), 0.17. Also, the IC50 in data set [4] (H4IIE cells, MTS proliferation assay after 90 min exposure, 1 h MTS, linear regression, mean ± SD, at least three biological repeats) was determined as 2.88 ± 0.08 µM; in data set [5] (HEK293 cells, MTS proliferation assay after 90 min exposure, 1 h MTS, linear regression, mean ± SD, at least three biological repeats), 9.47 ± 3.63 µM. Moreover, the “TI (cell proliferation)” value was determined as 4.01 in data set [4] (MIC50 toward S. aureus 29213), 0.76 in data set [4] (MIC50 towards E. coli 8729), 13.18 in data set [5] (MIC50 toward S. aureus 29213) and 2.49 in data set [5] (MIC50 towards E. coli 8729). In addition, the MIC in data set [6] came out at 6.89 ± 0.72 µM (≈ 19.6 µg/mL). The MBC in data set [7] was found to be 8.67 ± 0.93 µM (≈ 24.7 µg/mL); in data set [8] (cation-adjusted MHB), 1.76 ± 0.76 µM (≈ 5.01 µg/mL).

In the case of `CN[C@H](CC(C)C)C(=O)N[C@H]1C(=O)N[C@@H](CC(N)=O)C(=O)N[C@H]2C(=O)N[C@H]3C(=O)N[C@H](C(=O)N[C@H](C(=O)O)c4cc(O)cc(O)c4-c4cc3ccc4O)[C@H](O)c3ccc(c(Cl)c3)Oc3cc2cc(c3O[C@@H]2O[C@H](CO)[C@@H](O)[C@H](O)[C@H]2O[C@H]2C[C@](C)(N)[C@H](O)[C@H](C)O2)Oc2ccc(cc2Cl)[C@H]1O` [Vancomycin], the MBC in data set [8] (Staphylococcus aureus, ATCC29213, cation-adjusted MHB, read-out: MBC) was 1.61 ± 0.44 µM (≈ 2.33 µg/mL).

Gentamycin had an MIC in data set [6] of 2.27 ± 0.33 µM. In data set [7], this compound registered an MBC of 3.3 ± 0.78 µM.
